The assay has as its target T1, Kv1.5 K+ channel (Homo sapiens, UniProt P22460).
T1 construct: gene KCNA5; human Kv1.5 stably expressed in LTK cells (LTK-Kv1.5)
Briefly: patch clamp of Kv1.[…] currents in LTK-Kv1.[…] cells. It counts as cell-based. In general terms: The patch-clamp technique gives a direct electrical read-out from membranes.

T1 sequence (P22460 whole entry): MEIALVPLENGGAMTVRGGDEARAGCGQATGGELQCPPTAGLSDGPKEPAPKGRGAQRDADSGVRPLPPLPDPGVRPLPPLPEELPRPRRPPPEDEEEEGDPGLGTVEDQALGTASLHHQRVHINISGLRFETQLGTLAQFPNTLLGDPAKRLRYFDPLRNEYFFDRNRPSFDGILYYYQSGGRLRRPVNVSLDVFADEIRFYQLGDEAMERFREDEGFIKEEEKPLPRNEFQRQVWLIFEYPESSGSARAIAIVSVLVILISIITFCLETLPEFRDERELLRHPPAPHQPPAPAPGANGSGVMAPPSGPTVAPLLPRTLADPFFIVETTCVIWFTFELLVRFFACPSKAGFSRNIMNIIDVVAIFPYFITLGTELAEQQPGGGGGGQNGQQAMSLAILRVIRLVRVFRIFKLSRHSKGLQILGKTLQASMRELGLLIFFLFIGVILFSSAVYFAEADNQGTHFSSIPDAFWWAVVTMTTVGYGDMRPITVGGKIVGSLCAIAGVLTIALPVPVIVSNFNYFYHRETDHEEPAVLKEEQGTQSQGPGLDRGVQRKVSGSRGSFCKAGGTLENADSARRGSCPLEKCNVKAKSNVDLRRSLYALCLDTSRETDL

In general, IC50 refers to the point on the concentration scale where inhibition reaches its midpoint. On to `CO[C@@H](CC[C@H](C)[C@H]1O[C@]23C[C@H](OC(=O)C[C@H]([C@@H](C)O)OC(=O)CC(=O)C(C)(CC2(C)C)OO3)[C@@H]1C)c1cccc(O)c1` [compound 2, neo-debromoaplysiatoxin J], for which half-maximal inhibition (IC50) required 1640 ± 150 nM.
On to `CO[C@@H](CC[C@H](C)[C@H]1O[C@]2(O)[C@H]3[C@@H](OC(=O)C[C@]3(O)[C@H](C)CC2(C)C)[C@@H]1C)c1cccc(O)c1` [compound 1, neo-debromoaplysiatoxin I], for which the IC50 stood at 2590 ± 370 nM.

The values above are taken from PMC10059712, “Structure Elucidation of Two Intriguing Neo-Debromoaplysiatoxin Derivatives from Marine Cyanobacterium Lyngbya sp. Showing Strong Inhibition of Kv1.5 Potassium Channel and Differential Cytotoxicity” (Molecules, 2023).
